Test results as given in patent US8633226B2, “Piperidinyl derivative as a modulator of chemokine receptor activity” (Bristol-Myers Squibb Company, priority 2008, dated 2014).
Where two headings read alike, the source gives them in different places.

Legend:
Human CCR1 = Human CCR1 (Homo sapiens (Human), UniProt P32246); assay: Human CCR1 THP-1 binding assay; conditions: [125I]-MIP-1α competition, THP-1 cells
Protocol: For radioligand competition studies, a final concentration of 1×10^5 THP-1 monocytic leukemia cells are combined with 100 μg of LS WGA PS beads (Amersham, Cat.#: RPNQ 0260) in 40 μL of assay buffer (RPMI 1640 without phenol red, 50 mM HEPES, 5 mM MgCl2, 1 mM CaCl2, 0.1% BSA). The THP-1 cell/bead mixture was added to each well of a 384-well assay plate (PerkinElmer, Cat. #:6007899) containing test compound in 3-fold serial dilution, with final concentrations ranging from 8 μM to 0.14 nM. A final concentration of 0.1 nM [^125I]-MIP-1α (PerkinElmer, Cat. #NEX298) in 20 μL assay buffer was added to the reaction. Unlabeled MIP-1α was added in excess to some wells to determine non-specific binding. Sealed assay plates were incubated at room temperature for 12 h then analyzed by LEADseeker™.
The competition data of the test compound over a range of concentrations is plotted as percentage inhibition of radioligand specifically bound in the absence of test compound (percent of total signal). After correcting for non-specific binding, IC50 values are determined. The IC50 value is defined as the concentration of test compound needed to reduce [^125I]-MIP-1α specific binding by 50% and is calculated using the four parameter logistic equation to fit the normalized data. The Ki values are determined by application of the Cheng-Prusoff equation to the IC50 values, where Ki=IC50/(1+ligand concentration/Kd). The Kd of [^125I]-MIP-1α in THP-1 cells is 0.1 nM. Each experiment was run in duplicate.

Human PXR = Human PXR (Homo sapiens (Human), UniProt O75469); assay: PXR transactivation assay; format: cell-based; conditions: HepG2 cells, CYP3A-Luc reporter; reported as EC60
Description: The cell culture medium used is DMEM. […] Charcoal/dextran treated fetal bovine serum (FBS) was purchased from Hyclone (Logan, Utah). HepG2 cells were obtained from ATCC (Manassas, Va.). Human PXR-pcDNA3 and luciferase reporter containing CYP3A4 promoter, CYP3A-Luc, were generated at Bristol-Myers Squibb. White tissue culture (TC)-surface 384-well plates were purchased from Perkin Elmer (Boston, Mass.). Luciferase substrate (Steady-Glo) was purchased from Promega (Madison, Wis.). Control compounds rifampicin, mifepristone, and sulfinpyrazone were purchased from Sigma (St. Louis, Mo.).
Culture of HepG2 cells is performed in T175 flasks using DMEM containing 10% FBS. The transfection mixture contains 1 μg/mL of PXR-pcDNA3 plasmid DNA, 20 μg/ml of Cyp3A-Lue plasmid DNA, 90 μL/mL of Lipofectamine 2000, and serum-free medium. After incubating at room temperature for 20 minutes, the transfection mixture (1 ml per flask) is applied to the cells in fresh medium (20 mL per flask), and flasks incubated at 37° C. (5% CO2) overnight.
The flasks are then tapped vigorously to break up cell aggregates. After the addition of 8 mL of DMEM containing 5% charcoal/dextran-treated FBS, the entire mixture is transferred to conical tubes. Cells are then centrifuged at 1000 rpm for 5 minutes. Cell pellets are resuspended to a final count of ˜7×10^6 cells/ml, in freezing media (DMEM containing 20% serum and 10% DMSO). The cell suspension is aliquoted into 15-mL polypropylene tubes, 5 mL per tube. Cells are slowly frozen by placing in a Styrofoam-insulated container at −80° C. overnight. Vials are transferred to an Ultracold (−140° C.) freezer after 24 hours for long-term storage.
Vials of cryopreserved cells are thawed rapidly in a warm water bath for five minutes. Cells are pooled and diluted to 50 mL in a 50-mL conical vial. The thawed cells are centrifuged at 1500 rpm for 5 minutes to collect the cells and the supernatant discarded. Cells are then resuspended in fresh Media II (DMEM containing 5% charcoal/dextran-treated FBS, 1% Penicillin/Streptomycin, 100 μM Non-essential Amino Acids, 1 mM Sodium Pyruvate, and 2 mM L-Glutamine), counted using the Guava Cell Counter, and diluted to 1.6×10^5 cells/ml in the same media.
Fifty microliters of cell mixture is added to wells in columns 1-23 of white tissue-culture treated 384-well plates containing 0.25 μL of test compound dissolved in 100% DMSO. Fifty microliters of Media II is added to wells in column 24. The plates are incubated at 37° C. (5% CO2) for 24 hours, then 5 μL of Alamar Blue reagent (Trek Diagnostics, Cat #00-100) is added to each well. Plates are then incubated an additional two hours at 37° C., 5% CO2 and then one hour at room temperature. […] After the fluorescence is measured, 25 μL of luciferase substrate (Steady-Glo, Promega) is added to each well. The plates are incubated for fifteen minutes at room temperature, after which the luminescence is read on a PheraStar (BMG Labtech) plate reader.
Rifampicin (10 μM), a well-known agonist of PXR, is included in each plate as an internal standard and positive control. The data is then expressed as percent control (% CTRL), where the control signal is the signal from the 10 μM rifampicin and the blank signal is that from the DMSO vehicle. % CTRL=((Compound signal−Blank signal)/(Control signal−Blank signal))*100
The EC50 is defined as the concentration corresponding to half of the maximal response derived from the fitted 20-point curve as determined using a four-parameter logistic regression model. Additionally, compounds may also be reported as EC20 or EC60.

[1] = In vitro metabolism assay, human liver microsomes, Assay Conditions A; format: in vitro ADME; conditions: 0.5 μM compound, 10 minutes, 37° C.
Protocol: Test compound is received as a 3.5 mM stock solution in 100 percent DMSO. Compound is diluted to create a 50 μM acetonitrile (ACN) solution containing 1.4% DMSO, which is then used as a 100× stock for incubation with microsomes. Each compound is tested in duplicate separately in each of three species in the Metabolic Stability-Human, Rat, and Mouse assay suite or as individual species in the Metabolic Stability-Dog or Metabolic Stability-Monkey suites. Compound, NADPH and liver microsome solutions are combined for incubation in three steps:
152 μL of liver microsome suspension, protein concentration of 1.1 mg/mL in 100 mM NaPi, pH 7.4, 6.6 mM MgCl2 buffer, is pre-warmed at 37° C.
• 1) 1.7 μL of 50 μM compound (98.6% ACN, 1.4% DMSO) is added to the same tube and pre-incubated at 37° C. for 5 minutes. • 2) The reaction is initiated by the addition of 17 μL of pre-warmed 10 mM NADPH solution in 100 mM NaPi, pH 7.4. • 3) Reaction components are mixed well, and 75 μL are immediately transferred into 150 μl quench/stop solution (zero-time point, T0). Reactions are incubated at 37° C. for 10 minutes and then an additional 75 μL aliquot is transferred into 150 μL quench solution. Acetonitrile containing 100 μM DMN (a UV standard for injection quality control), is used as the quench solution to terminate metabolic reactions. • 4) Quenched mixtures are centrifuged at 1500 rpm (˜500×g) in an Allegra X-12 centrifuge, SX4750 rotor (Beckman Coulter Inc., Fullerton, Calif.) for fifteen minutes to pellet denatured microsomes. A volume of 90 μL of supernatant extract, containing the mixture of parent compound and its metabolites, is then transferred to a separate 96-well plate for UV-LC/MS-MS analysis to determine the percent of parent compound that is remaining in the mixture. • 5)

hERG = hERG (Homo sapiens (Human), UniProt Q12809); assay: hERG patch clamp assay; format: cell-based; conditions: HEK-293 cells stably expressing hERG, pH 7.4, protein-free buffer, read-out: hERG, % inh @ 30 μM
Protocol: Whole-cell patch-clamp was used to directly measure hERG tail currents in HEK-293 cells stably expressing the cloned hERG potassium channel α subunit. Effects of compounds were calculated by measuring inhibition of peak tail current. Experiments were carried out using an aqueous buffer with pH 7.4 at room temperature. There was no protein in the assay buffer. The test concentrations reported are nominal free drug levels.

[2] = biological target: human cardiac sodium channel SCN5A (Homo sapiens (Human), UniProt Q14524); assay: Sodium channel whole-cell patch-clamp assay; format: cell-based; conditions: HEK-293 cells expressing human cardiac sodium channel SCN5A, pH 7.4, protein-free buffer, read-out: Na, % inh
Protocol: Whole-cell patch-clamp was used to directly measure inward sodium currents in HEK-293 cells expressing the human cardiac sodium channel, SCN5A. After reach steady-state effect in the presence of drug, rate-dependence was assessed by stimulation at frequencies of 1 Hz and 4 Hz. Experiments were carried out using an aqueous buffer at pH 7.4 and at room temperature. There is no protein in the buffer and drug concentrations reported are nominal free drug levels. Test article was evaluated up to 10 μM (protein-free buffer). Rate-dependence of inhibition was assessed by stimulation at frequencies of 1 Hz and 4 Hz.

[3] = biological target: human cardiac L-type Ca channel (α1C) and its β subunit (Homo sapiens (Human), UniProt Q13936); assay: L-type calcium channel whole-cell patch-clamp assay; format: cell-based; conditions: HEK-293 cells, protein-free buffer
Protocol: In addition to the potential for interaction with the L-type calcium channel, whole-cell patch-clamp was used to directly measure inward calcium currents in HEK-293 cells stably expressing the cloned human cardiac L-type Ca channel (α1C) and its β subunit. Effects of compounds were calculated by measuring inhibition of peak current. Experiments were carried out using an aqueous buffer at pH 7.4 and at room temperature. There is no protein in the buffer and drug concentrations reported are nominal free drug levels.

Protein binding, human = format: in vitro ADME
Protein binding, rabbit = format: in vitro ADME
[4] = Electrocardiography in anesthetized rabbits; format: in vivo; conditions: male, blood, anesthetized rabbit, iv
Protocol: (§1) A dose-response study of test compound was conducted in anesthetized rabbits to assess the cardiac electrophysiologic profile established in the cellular ion channel assays.
(§2) Experiments were performed in propofol-fentanyl anesthetized closed-chest male rabbits. A body surface electrocardiogram (ECG) and an intra-cardiac His-bundle electrogram were continuously monitored and recorded during the studies, using a PoNeMah system and a Prucka electrophysiological recording system, respectively. Test compound was prepared on the day of study in a vehicle of PEG400:ethanol:water (1:1:1) at a dosing concentration of 30 mg/mL. Test compound (n=3) or vehicle (n=3) was given intravenously over 5 minutes via an infusion pump at incremental doses of 3, 10 and 30 mg/kg. The interval between doses was 10 minutes, allowing for a 5-minute test agent infusion and a 5-minute rest period. Blood was sampled at baseline (pre-drug infusion) and immediately at the end of each infusion. For the 30 mg/kg dose, additional blood samples were taken at 10, 20 and 30 minutes after the end of infusion.
(§3) PR interval, QRS duration and QT interval were averaged from a 1 minute ECG recording period at time of blood sampling. QT interval was corrected for heart rate effects using both Fridericia (QTcf) and Van der Water (QTcv) formulae. AH and HV intervals, representing A-V node conduction and His-Purkinje conduction, respectively, were assessed by manual measurements from the His-bundle electrogram. Data were expressed as percent change from pre-drug baseline (mean±SEM) for PR, QRS, AH and HV intervals as well as delta change from the pre-drug infusion baseline (mean±SEM) for QTc intervals. Changes of ≧10% in PR, QRS, and AH intervals, and 20% in HV interval, as well as >10 ms in QTc interval are considered significant based on experience with the model.

anesthetized rabbits = assay: Electrocardiography in anesthetized rabbits; format: in vivo; conditions: anesthetized rabbit; for Cmax: Free drug at QT effect dose / Cmax: Free drug at NOEL dose: iv
Protocol: as §1, §2, §3

Chain of Human CCR1 (P32246 whole entry): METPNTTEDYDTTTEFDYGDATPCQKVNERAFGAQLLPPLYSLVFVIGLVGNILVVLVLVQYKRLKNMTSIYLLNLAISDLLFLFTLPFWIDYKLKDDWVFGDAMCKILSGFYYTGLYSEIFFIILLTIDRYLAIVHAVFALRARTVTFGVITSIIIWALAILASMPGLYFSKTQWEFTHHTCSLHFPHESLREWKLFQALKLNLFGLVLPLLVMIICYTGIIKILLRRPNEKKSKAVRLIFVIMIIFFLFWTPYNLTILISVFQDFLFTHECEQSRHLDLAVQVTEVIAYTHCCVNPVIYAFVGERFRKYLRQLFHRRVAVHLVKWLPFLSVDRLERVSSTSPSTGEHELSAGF
Chain of hERG (Q12809 whole entry): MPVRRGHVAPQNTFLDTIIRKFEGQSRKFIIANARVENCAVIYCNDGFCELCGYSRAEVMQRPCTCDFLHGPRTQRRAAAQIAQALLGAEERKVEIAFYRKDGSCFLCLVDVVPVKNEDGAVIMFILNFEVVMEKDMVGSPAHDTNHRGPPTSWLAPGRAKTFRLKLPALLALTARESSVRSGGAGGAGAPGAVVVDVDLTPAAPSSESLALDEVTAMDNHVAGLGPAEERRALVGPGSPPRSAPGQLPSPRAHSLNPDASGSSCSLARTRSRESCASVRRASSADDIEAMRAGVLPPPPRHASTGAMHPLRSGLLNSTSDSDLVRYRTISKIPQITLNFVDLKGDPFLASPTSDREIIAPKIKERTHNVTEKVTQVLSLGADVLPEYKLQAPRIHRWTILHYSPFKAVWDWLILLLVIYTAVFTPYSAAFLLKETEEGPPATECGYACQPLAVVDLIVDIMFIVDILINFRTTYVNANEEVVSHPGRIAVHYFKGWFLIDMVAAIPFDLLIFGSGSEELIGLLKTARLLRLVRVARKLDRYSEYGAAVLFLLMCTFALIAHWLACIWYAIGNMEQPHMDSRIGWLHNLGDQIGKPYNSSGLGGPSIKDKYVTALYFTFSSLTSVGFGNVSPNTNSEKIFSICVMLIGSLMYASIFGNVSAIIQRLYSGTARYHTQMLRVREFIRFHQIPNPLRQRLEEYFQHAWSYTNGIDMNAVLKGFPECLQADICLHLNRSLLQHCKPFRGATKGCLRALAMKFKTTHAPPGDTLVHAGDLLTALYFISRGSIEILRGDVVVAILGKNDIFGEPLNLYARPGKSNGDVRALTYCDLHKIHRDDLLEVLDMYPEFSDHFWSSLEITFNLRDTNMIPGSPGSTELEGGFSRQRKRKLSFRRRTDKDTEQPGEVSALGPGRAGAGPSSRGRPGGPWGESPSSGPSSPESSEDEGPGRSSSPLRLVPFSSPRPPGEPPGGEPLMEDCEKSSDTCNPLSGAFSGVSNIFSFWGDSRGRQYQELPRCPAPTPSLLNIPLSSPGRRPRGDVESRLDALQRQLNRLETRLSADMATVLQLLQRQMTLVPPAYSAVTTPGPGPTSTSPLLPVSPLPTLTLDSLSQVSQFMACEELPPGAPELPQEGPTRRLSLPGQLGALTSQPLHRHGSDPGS
Chain of Human PXR (O75469 whole entry): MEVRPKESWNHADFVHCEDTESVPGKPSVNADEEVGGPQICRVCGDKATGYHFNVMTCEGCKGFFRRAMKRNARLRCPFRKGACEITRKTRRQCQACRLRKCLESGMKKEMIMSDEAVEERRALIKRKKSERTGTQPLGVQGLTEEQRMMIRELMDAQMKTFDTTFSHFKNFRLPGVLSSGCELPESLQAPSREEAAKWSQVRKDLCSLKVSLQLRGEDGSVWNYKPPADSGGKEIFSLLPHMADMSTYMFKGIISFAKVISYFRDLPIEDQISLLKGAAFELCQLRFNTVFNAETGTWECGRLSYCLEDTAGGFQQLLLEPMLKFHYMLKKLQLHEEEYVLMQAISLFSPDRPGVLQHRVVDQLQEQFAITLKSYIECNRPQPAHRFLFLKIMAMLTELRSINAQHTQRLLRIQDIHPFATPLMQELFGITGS
Chain of human cardiac L-type Ca channel (α1C) and its β subunit (Q13936 whole entry): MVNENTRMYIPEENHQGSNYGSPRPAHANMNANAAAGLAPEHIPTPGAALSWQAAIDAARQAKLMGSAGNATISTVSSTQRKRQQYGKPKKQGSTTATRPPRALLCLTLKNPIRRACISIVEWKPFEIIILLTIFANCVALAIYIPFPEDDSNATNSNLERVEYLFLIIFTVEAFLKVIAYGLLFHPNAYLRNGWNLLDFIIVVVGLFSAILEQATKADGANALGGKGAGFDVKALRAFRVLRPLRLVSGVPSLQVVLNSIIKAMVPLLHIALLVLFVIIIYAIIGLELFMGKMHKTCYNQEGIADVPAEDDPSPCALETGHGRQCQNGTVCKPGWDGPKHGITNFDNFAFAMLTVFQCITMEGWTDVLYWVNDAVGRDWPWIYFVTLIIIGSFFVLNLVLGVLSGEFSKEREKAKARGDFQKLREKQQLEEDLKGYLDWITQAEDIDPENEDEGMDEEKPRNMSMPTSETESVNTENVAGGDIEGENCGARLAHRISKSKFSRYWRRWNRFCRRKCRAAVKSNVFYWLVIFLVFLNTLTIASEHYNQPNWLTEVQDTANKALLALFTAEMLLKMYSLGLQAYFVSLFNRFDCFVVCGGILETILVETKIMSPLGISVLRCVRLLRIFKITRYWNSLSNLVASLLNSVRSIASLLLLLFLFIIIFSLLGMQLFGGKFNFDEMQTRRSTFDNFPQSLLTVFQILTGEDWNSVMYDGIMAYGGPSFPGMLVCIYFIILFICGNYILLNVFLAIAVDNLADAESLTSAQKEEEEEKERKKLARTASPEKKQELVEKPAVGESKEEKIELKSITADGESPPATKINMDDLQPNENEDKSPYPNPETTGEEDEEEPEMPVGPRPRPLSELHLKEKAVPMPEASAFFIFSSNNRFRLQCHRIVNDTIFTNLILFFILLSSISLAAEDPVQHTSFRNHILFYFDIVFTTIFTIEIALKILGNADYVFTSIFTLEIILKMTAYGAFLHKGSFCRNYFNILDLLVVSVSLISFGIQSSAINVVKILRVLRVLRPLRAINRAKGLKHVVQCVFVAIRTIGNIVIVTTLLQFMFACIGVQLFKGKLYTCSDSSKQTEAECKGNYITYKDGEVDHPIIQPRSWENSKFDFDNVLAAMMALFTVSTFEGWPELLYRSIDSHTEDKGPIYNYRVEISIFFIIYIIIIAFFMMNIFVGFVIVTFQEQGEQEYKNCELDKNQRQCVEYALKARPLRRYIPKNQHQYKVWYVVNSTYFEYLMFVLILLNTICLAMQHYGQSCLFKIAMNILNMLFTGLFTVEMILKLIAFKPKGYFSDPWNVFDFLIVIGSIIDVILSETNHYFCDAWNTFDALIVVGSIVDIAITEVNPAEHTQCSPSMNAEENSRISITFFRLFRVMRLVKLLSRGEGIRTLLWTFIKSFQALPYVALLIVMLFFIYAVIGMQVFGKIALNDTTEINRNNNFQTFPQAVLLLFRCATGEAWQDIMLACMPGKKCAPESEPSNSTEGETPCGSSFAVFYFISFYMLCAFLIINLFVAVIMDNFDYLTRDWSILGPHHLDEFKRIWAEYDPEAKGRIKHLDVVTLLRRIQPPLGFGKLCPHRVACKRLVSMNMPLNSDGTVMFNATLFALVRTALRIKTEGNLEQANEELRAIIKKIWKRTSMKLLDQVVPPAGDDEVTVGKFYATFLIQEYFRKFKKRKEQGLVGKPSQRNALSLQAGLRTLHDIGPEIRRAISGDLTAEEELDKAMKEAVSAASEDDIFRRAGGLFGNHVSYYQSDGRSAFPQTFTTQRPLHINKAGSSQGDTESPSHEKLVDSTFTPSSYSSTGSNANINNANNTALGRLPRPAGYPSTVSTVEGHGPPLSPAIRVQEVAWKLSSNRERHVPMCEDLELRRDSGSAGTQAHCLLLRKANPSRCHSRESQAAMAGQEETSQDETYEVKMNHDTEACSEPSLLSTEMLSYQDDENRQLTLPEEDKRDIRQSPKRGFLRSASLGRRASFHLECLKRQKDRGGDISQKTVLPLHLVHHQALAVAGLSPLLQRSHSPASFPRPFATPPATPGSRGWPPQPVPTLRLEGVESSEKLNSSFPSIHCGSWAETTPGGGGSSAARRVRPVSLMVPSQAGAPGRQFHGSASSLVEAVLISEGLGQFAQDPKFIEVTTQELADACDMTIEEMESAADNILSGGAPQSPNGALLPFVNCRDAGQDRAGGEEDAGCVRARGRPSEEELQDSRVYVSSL
Chain of human cardiac L-type Ca channel (α1C) and its β subunit (Q08289 whole entry partner): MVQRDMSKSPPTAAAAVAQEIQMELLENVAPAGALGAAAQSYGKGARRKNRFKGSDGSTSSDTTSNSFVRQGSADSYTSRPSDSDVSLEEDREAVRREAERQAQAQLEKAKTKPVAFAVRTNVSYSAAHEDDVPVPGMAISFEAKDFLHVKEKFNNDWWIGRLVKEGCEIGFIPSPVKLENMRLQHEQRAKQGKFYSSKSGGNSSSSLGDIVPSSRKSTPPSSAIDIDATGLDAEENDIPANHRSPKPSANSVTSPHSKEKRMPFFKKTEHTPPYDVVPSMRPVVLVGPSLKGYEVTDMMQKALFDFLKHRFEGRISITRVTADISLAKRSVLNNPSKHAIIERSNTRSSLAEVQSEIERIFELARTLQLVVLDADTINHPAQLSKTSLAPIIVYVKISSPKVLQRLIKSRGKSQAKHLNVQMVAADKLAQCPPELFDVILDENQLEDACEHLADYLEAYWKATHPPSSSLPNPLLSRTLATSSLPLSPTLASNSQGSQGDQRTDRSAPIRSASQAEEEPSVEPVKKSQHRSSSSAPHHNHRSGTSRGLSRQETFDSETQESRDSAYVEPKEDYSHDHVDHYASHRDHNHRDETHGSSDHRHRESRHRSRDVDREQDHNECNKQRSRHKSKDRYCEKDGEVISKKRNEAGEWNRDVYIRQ

SMILES	Ki (Human CCR1) [nM]	PXR EC60 (Human PXR) [µM]	Human Liver Microsomal Metabolism % remaining (Assay Conditions A) [1]	inhibition at 30 µM (hERG) [%]	inhibition at 10 µM [2] [%]	Ca, % inh ([3]; 30 μM) [% @ 30 μM]	fraction unbound (Protein binding, human)	fraction unbound (Protein binding, rabbit)	Cmax ([4]; 10 mg/kg, read-out: Cmax: Total drug at QT effect dose) [µM]	QT effect Dose (anesthetized rabbits; iv infusion) [mg/kg]	QTcf, delta (anesthetized rabbits; iv infusion, at QT effect dose 10 mg/kg) [ms]	Cmax: Free drug at QT effect dose (anesthetized rabbits; 10 mg/kg) [µM]	Cmax: Free drug at NOEL dose (anesthetized rabbits; NOEL not identified (<10 mg/kg)) [µM]	Ca, % inh ([3]; 10 μM) [% @ 10 μM]	Cmax ([4]; 30 mg/kg, read-out: Cmax: Total drug at QT effect dose) [µM]	Cmax ([4]; NOEL dose 10 mg/kg, read-out: Cmax: Total drug at NOEL dose) [µM]	NOEL dose (No Observed Effect Level) (anesthetized rabbits; iv infusion) [mg/kg]	QTcf, delta (anesthetized rabbits; iv infusion, at QT effect dose 30 mg/kg) [ms]	Cmax: Free drug at QT effect dose (anesthetized rabbits; 30 mg/kg) [µM]	Cmax: Free drug at NOEL dose (anesthetized rabbits; NOEL dose 10 mg/kg) [µM]
CC(C)NC(=O)N[C@@H](C(=O)N1CC[C@](O)(c2ccc(Cl)cc2)C(C)(C)C1)C(C)C [#850]	0.5	10.2	99% (A)																	
CC(C)[C@@H](NC(=O)[C@@H]1CC[C@@H](O)C1)C(=O)N1CC[C@](O)(c2ccc(Cl)cc2)C(C)(C)C1 [EX# 572]	1.5			32	25	19	0.16	0.13	48.6	10	22	6.3	< 6.3							
CC[C@@H](C)NC(=O)N[C@@H](C(=O)N1CC[C@](O)(c2ccc(Cl)cc2)C(C)(C)C1)C(C)C [#897]	2.1	>50	59% (A)																	
CC(C)[C@@H](NC(=O)c1cccc(S(N)(=O)=O)c1)C(=O)N1CC[C@](O)(c2ccc(Cl)cc2)C(C)(C)C1 [EX# 491]	2.1			27	13		0.05	0.06		30				22	138	77	10	17	5.5	3.1
